According to BigSolDB 2.1:

Nc1ncnc2c1ncn2[C@@H]1O[C@H](COP(=O)(O)O)[C@@H](O)[C@H]1O
solubility (mole fraction)
Conditions | in acetic acid | in ethanol | in methanol | in water
288.15 K | 7.85e-05 | 5.3e-06 | 8.59e-06 | –
288.2 K | – | – | – | 0.000257
294.15 K | 0.000122 | 5.61e-06 | 9.35e-06 | –
294.2 K | – | – | – | 0.000336
300.15 K | 0.000186 | 6.75e-06 | 1.04e-05 | –
300.2 K | – | – | – | 0.000412
306.15 K | 0.000276 | 7.73e-06 | 1.15e-05 | –
306.2 K | – | – | – | 0.000526
312.15 K | 0.000395 | 9.24e-06 | 1.3e-05 | –
312.2 K | – | – | – | 0.000636
318.15 K | 0.000564 | 1.06e-05 | 1.41e-05 | –
318.2 K | – | – | – | 0.000768
324.15 K | 0.00075 | 1.24e-05 | 1.65e-05 | –
324.2 K | – | – | – | 0.000934
330.15 K | 0.000967 | 1.54e-05 | 1.79e-05 | –
